This is an account of results in paper PMC8740163, “Voltage-Gated Sodium Channel Modulation by a New Spider Toxin Ssp1a Isolated From an Australian Theraphosid” (Frontiers in Pharmacology, 2021).

In one experiment the target is hNaV1.7 (Homo sapiens, UniProt Q15858). The format is cell-based.
Experiment [1] relates to hNaV1.1, 1.2, 1.6, 1.7, 1.3. The settings on record: ref Gonçalves et al., 2018, cited from earlier work.

hNaV1.7, sequence (Q07699 19-218): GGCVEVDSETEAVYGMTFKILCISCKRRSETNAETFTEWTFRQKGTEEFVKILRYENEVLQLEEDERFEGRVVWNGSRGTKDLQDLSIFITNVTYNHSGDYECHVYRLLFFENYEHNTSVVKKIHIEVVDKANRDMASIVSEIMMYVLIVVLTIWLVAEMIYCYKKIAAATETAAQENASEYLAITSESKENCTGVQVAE
hNaV1.7, sequence (Q15858 whole entry): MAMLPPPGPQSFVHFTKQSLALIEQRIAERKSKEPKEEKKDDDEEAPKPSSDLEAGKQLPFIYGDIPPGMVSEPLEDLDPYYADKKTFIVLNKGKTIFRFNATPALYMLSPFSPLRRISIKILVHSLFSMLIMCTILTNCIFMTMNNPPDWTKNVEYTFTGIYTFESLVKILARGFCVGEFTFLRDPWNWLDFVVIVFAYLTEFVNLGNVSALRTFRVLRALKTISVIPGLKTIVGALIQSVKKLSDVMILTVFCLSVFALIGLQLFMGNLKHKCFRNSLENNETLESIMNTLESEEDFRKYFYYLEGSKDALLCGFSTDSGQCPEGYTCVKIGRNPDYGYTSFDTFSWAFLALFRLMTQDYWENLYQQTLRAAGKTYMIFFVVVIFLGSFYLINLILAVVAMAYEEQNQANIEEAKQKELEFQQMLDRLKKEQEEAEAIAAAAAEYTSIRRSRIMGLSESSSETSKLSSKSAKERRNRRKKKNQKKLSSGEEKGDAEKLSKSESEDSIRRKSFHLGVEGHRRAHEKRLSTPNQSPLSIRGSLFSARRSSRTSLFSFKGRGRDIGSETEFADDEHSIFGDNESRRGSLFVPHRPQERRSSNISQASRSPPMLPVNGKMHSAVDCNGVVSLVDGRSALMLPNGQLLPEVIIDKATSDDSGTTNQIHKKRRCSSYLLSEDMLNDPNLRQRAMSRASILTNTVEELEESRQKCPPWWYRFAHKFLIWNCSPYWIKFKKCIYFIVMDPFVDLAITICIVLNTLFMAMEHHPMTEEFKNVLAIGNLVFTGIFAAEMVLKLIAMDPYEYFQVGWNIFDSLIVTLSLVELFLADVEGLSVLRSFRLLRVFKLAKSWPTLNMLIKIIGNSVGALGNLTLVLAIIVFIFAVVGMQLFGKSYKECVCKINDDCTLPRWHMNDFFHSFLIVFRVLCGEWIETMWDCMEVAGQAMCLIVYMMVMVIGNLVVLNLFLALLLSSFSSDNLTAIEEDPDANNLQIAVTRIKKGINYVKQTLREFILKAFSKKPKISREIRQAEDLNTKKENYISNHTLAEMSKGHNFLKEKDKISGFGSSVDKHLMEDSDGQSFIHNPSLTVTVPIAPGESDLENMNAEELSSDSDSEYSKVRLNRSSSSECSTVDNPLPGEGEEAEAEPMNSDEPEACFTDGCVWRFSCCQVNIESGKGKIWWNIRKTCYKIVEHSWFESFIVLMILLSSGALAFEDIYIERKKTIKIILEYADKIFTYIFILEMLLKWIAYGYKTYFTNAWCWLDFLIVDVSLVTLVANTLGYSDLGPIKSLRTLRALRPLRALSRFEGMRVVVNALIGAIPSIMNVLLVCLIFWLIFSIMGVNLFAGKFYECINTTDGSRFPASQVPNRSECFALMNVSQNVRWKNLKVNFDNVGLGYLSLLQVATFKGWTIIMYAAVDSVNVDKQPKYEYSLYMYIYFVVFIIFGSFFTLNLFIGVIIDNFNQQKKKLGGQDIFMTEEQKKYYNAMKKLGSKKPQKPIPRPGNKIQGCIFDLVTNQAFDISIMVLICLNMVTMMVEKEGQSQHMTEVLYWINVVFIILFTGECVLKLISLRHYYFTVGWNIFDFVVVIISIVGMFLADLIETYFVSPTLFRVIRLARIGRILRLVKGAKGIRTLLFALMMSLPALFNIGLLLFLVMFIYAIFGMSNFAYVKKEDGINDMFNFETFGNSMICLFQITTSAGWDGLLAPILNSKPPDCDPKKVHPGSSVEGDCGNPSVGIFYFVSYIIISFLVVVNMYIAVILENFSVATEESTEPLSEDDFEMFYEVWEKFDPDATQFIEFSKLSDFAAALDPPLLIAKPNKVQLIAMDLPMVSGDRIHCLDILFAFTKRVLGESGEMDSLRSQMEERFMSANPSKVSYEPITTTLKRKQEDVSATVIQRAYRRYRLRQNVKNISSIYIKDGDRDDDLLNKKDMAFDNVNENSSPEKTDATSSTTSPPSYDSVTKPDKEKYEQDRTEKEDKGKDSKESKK

Take `NC1=N[C@H](O)[C@H]2[C@H]3O[C@]4(O)O[C@@H]([C@@H](O)[C@@]2(N1)[C@@H]4O)[C@]3(O)CO` [Tetrodotoxin (TTX), Tetrodotoxin]: at hNaV1.7, the “inhibition of veratridine + OD1 activated responses” value was “fully inhibited”. As a reminder, the IC50 is the concentration that gives 50% inhibition. In the case of “HwTx-IV: NaSpTx1 family spider toxin, 40% sequence identity with Ssp1a”, the IC50 in experiment [1] (range over hNaV1.1, 1.2, 1.6, 1.7, 1.3, read-out: IC50 at five hNaV subtypes) was 41 to 190 nM. The “rank order of potency” value in experiment [1] is listed as “hNaV1.1 > 1.2 > 1.6 > 1.7 > 1.3”.
